From patent publication US20100010078A1, “METHODS OF TREATING ANDROGEN DEPENDENT PROSTATE CANCER BY ADMINISTERING AN ACTIVE PHARMACEUTICAL INGREDIENT BEING FISETIN, 3,3',4',7-TETRAHYDROXYFLAVONE OR A DERIVATIVE THEREOF, IN AN ORAL, TRANSDERMAL OR TOPICAL DOSAGE FORM” (priority 2008, published 2010) come the findings set out here.

One assay relates to caspase-3 and -7. The assay is described as follows: Immunofluorescence staining for active caspase-3 and -7. The note with it: LNCaP, fisetin only 40 μM, 48 h. It is filed as cell-based, human. The procedure: Immunofluorescence staining for active caspase-3 and -7. LNCaP cells were incubated with 40 μM concentration of the general caspase inhibitor Z-VAD-FMK for 2 h, followed by the addition of fisetin (40 μM; 48 h) and then harvested. ICT's Magic Red™ substrate-based MR-Caspase assay kit was used for the immunofluorescence staining for caspase-3 and -7. This kit utilizes the fluorophore, cresyl violet. As the 4 amino acid sequence, aspartylglutamylalanylaspartic acid (DEVD) is the optimal sequence for caspase -3 as well as -7, it was coupled to cresyl violet to create the caspase 3/7 substrate, MR-(DEVD)2. […] Following enzymatic hydrolysis at one or both of the aspartic acid amide linkage sites, the mono and non-substituted cresyl violet fluorophores fluoresce red and fluorescence photographs were obtained at 510-560 nm excitation and 610 nm emission.

The subject of the next assay is PrEC cells. The assay is described as follows: MTT cell viability assay, normal prostate epithelial (PrEC) cells. It is filed as cell-based, human. The note with it: fisetin 10-60 μM. The procedure:
obtained from ATCC (Manassas, Va.). LNCaP cells were cultured in Dulbecco's Modified Eagle's medium supplemented with 5% heat-inactivated fetal bovine serum and 1% penicillin/streptomycin (P-S). CWR22Ru1 and PC-3 cells were grown in RPMI 1640 (Invitrogen) supplemented with 10% fetal bovine serum and 1% P-S. Human prostate epithelial cells (PrEC) were obtained from Cambrex Bioscience (Walkersville, Md.) and grown in prostate epithelial basal cell medium (Cambrex Bioscience) according to the manufacturer's instructions. The cells were maintained under standard cell culture conditions at 37° C. and 5% CO2 in a humid environment. Fisetin dissolved in dimethyl sulfoxide (final concentration 0.1% v/v) was used for the treatment of cells. The cells (60-70% confluent) were treated with fisetin (10-60 μM) for 24 and 48 h in complete growth medium.
Cell viability. The effect of fisetin on the viability of cells was determined by 3-[4,5-dimethylthiazol-2-yl]-2,5-diphenyl tetrazoliumbromide assay. […] The absorbance was recorded on a microplate reader at the wavelength of 540 nm. The effect of fisetin on growth inhibition was assessed as percent cell viability where DMSO-treated cells were taken as 100% viable. […]

Structures are written as SMILES.

On to `O=c1c(O)c(-c2ccc(O)c(O)c2)oc2cc(O)ccc12` [fisetin, 3,3′,4′,7-tetrahydroxyflavone], for which the “immunofluorescence staining of active caspase-3 & 7” value in the assay on caspase-3 and -7 is reported as “intense staining”. In addition, the “effect on cell viability” value in the assay with PrEC cells (24 h) and in the assay on PrEC cells (48 h) was “minimal effect” throughout.
